Experimental findings from US12071425B2 (Genentech, Inc., priority 2018, dated 2024) are described below.

As usually defined, the IC50 is the point on the concentration scale where inhibition reaches its midpoint. Higher therefore signals weaker potency in that assay.

Counter-ions that a name gives are not always drawn.

Chain of kinase domain of IRE1 alpha (His-tagged kinase dead construct KR, AA G547-L977, D688N) (O75460 547-977 D688N): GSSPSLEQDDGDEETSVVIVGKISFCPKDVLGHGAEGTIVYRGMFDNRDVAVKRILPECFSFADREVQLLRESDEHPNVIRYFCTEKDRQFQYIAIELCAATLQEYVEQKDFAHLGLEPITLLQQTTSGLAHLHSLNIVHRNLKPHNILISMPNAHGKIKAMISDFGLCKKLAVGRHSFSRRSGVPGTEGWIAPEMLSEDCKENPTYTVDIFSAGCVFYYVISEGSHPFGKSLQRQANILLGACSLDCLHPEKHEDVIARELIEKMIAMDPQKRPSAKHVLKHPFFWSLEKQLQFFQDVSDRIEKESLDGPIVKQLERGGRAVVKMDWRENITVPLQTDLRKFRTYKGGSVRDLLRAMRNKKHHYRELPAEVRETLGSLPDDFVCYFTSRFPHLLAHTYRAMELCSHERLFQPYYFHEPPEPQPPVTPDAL

The assay has as its target kinase domain of IRE1 alpha (His-tagged kinase dead construct KR, AA G547-L977, D688N) (Homo sapiens (Human), UniProt O75460, D688N). The assay is described as follows: IRE1α TR-FRET competition binding assay. Particulars: competition with Kinase Tracer 236, 0.1 μM; one hour at room temperature. On the procedure:
To determine the affinity of compound binding to the kinase domain of IRE1 alpha, a Time Resolved Fluorescence Resonance Energy Transfer (TR-FRET) competition assay was used. A His-tagged IRE1 alpha kinase dead construct containing the kinase and RNase domains (KR, AA G547-L977, D688N) was expressed in Sf9 insect cells. The purified protein (final concentration 0.006 μM micromolar) was pre-incubated with anti-His Europium labeled antibody (Life Technologies PV5596, final concentration 0.002 μM micromolar) for one hour at 4° C. in 1X TR-FRET Assay Buffer (50 mM HEPES, pH 7.5.10 mM MgCl2, 0.083 mM Brij 35, 1 mM DTT, and 0.1% bovine gamma globulin) prior to addition to test compounds. A fluorescent labeled probe based on an ATP competitive inhibitor (Kinase Tracer 236, Life Technologies PV5592) is added to a final concentration of 0.1 μM (micromolar). Reactions were carried out for one hour at room temperature in a final volume of 20 μL (microliter) in 384 well white ProxiPlates (Perkin Elmer 6008289). Binding of the tracer to the IRE1 protein alpha was detected in an Envision instrument (PerkinElmer) equipped with a TRF laser option and a LANCE/Delfia Dual/Bias D400/D630 mirror (Ex 347 nm, 1st Em 665 nm, 2nd Em 615 nm).
Exemplary compounds in Table A1 were tested in the IRE1α binding assays.
In turn, `CCCCS(=O)(=O)Nc1cc(C)c(Oc2ncccc2-c2ccnc(N[C@H]3CCCNC3)n2)c(F)c1` [Compound 115, (S)-N-(3-fluoro-5-methyl-4-((3-(2-(piperidin-3-ylamino)pyrimidin-4-yl)pyridin-2-yl)oxy)phenyl)butane-1-sulfonamide hydrochloride] came in with an IC50 of 30 nM.
The value for `O=S(=O)(Nc1c(F)cc(Oc2ncccc2-c2ccnc(N[C@@H]3CNC[C@@H](F)C3)n2)c(F)c1F)C1CCCC1` [Compound 369, N-(2,3,6-Trifluoro-4-((3-(2-(((3S,5S)-5-fluoropiperidin-3-yl)amino)pyrimidin-4-yl)pyridin-2-yl)oxy)phenyl)cyclopentanesulfonamide] was 1.2 nM; that for `O=S(=O)(Nc1ccc(Oc2ncccc2-c2ccnc(N[C@H]3CCCNC3)n2)c(F)c1F)c1cccc(OC(F)F)c1` [Compound 208, (S)-N-(2,3-difluoro-4-((3-(2-(piperidin-3-ylamino)pyrimidin-4-yl)pyridin-2-yl)oxy)phenyl)-3-(difluoromethoxy)benzenesulfonamide] was 11 nM.
The result for `O=S(=O)(Cc1ccccc1F)Nc1c(F)cc(Oc2ncccc2-c2ccnc(NC3CNCC(C4CC4)C3)n2)c(F)c1F` (single isomer, unassigned) [Compound 324, N-(4-((3-(2-((5-Cyclopropylpiperidin-3-yl)amino)pyrimidin-4-yl)pyridin-2-yl)oxy)-2,3,6-trifluorophenyl)-1-(2-fluorophenyl)methanesulfonamide] reads 0.4 nM; that for `O=S(=O)(CC1CC1(F)F)Nc1c(F)cc(Oc2ncccc2-c2ccnc(N[C@@H]3CNC[C@@H](F)C3)n2)c(F)c1F` (stereo partly drawn) [Compound 271, 1-(2,2-Difluorocyclopropyl)-N-(2,3,6-trifluoro-4-((3-(2-(((3S,5S)-5-fluoropiperidin-3-yl)amino)pyrimidin-4-yl)pyridin-2-yl)oxy)phenyl)methanesulfonamide], 3.6 nM; that for `OC(CNc1cccc(Oc2ncccc2-c2ccnc(N[C@H]3CCCNC3)n2)c1F)C(F)(F)F` (single isomer, unassigned) [Compound 200], 530 nM.
The result for `CCCS(=O)(=O)Nc1cc(C)c(Oc2ncccc2-c2ccnc(N[C@H]3CCCNC3)n2)cc1C` [Compound 124, (S)-N-(2,5-Dimethyl-4-((3-(2-(piperidin-3-ylamino)pyrimidin-4-yl)pyridin-2-yl)oxy)phenyl)propane-1-sulfonamide] reads 210 nM; that for `COc1cccc(CS(=O)(=O)Nc2c(F)cc(Oc3ncccc3-c3ccnc(N[C@@H]4CNC[C@@H](F)C4)n3)c(F)c2F)c1` [Compound 385, 1-(3-Methoxyphenyl)-N-(2,3,6-trifluoro-4-((3-(2-(((3S,5S)-5-fluoropiperidin-3-yl)amino)pyrimidin-4-yl)pyridin-2-yl)oxy)phenyl)methanesulfonamide], 0.2 nM; that for `O=S(=O)(Cc1ccncc1)Nc1c(F)cc(Oc2ncccc2-c2ccnc(N[C@@H]3CNC[C@@H](F)C3)n2)c(F)c1F` [Compound 359], 0.3 nM.
`CC(F)(F)C1CNCC(Nc2nccc(-c3cccnc3Oc3cc(F)c(NS(=O)(=O)Cc4ccccc4)c(F)c3F)n2)C1` (single isomer, unassigned) [Compound 338, N-(4-((3-(2-((5-(1, l-Difluoroethyl)piperidin-3-yl)amino)pyrimidin-4-yl)pyridin-2-yl)oxy)-2,3,6-trifluorophenyl)-1-phenylmethanesulfonamide] had an IC50 of 2.6 nM.
The value for `N#Cc1ccc(CS(=O)(=O)Nc2ccc(Oc3ncccc3-c3ccnc(N[C@H]4CCCNC4)n3)c(F)c2F)cc1` [Compound 166, (S)-1-(4-cyanophcnyl)-N-(2,3-difluoro-4-((3-(2-(piperidin-3-ylamino)pyrimidin-4-yl)pyridin-2-yl)oxy)phenyl)methanesulfonamide] was 3.5 nM; that for `O=S(=O)(Cc1ccc(C(F)F)cc1)Nc1c(F)cc(Oc2ncccc2-c2ccnc(N[C@@H]3CNC[C@@H](F)C3)n2)c(F)c1F` [Compound 371, 1-(4-(Difluoromethyl)phenyl)-N-(2,3,6-trifluoro-4-((3-(2-(((3S,5S)-5-fluoropiperidin-3-yl)amino)pyrimidin-4-yl)pyridin-2-yl)oxy)phenyl)methanesulfonamide] was 0.3 nM.
The result for `CC(C)(F)C1CNCC(Nc2nccc(-c3cccnc3Oc3cc(F)c(NS(=O)(=O)Cc4ccccc4)c(F)c3F)n2)C1` (single isomer, unassigned) [Compound 334, 1-Phenyl-N-(2,3,6-trifluoro-4-((3-(2-((5-(2-fluoropropan-2-yl)piperidin-3-yl)amino)pyrimidin-4-yl)pyridin-2-yl)oxy)phenyl)methanesulfonamide hydrochloride] reads 9.8 nM; that for `O=S(=O)(Cc1ccc(C(F)(F)F)nc1)Nc1c(F)cc(Oc2ncccc2-c2ccnc(N[C@@H]3CNC[C@@H](F)C3)n2)c(F)c1F` [Compound 254, N-(2,3,6-Trifluoro-4-((3-(2-(((3S,5S)-5-fluoropiperidin-3-yl)amino)pyrimidin-4-yl)pyridin-2-yl)oxy)phenyl)-1-(6-(trifluoromethyl)pyridin-3-yl)methanesulfonamide], 0.62 nM.
In turn, `O=S(=O)(Nc1c(F)cc(Oc2ncccc2-c2ccnc(N[C@@H]3CNC[C@@H](F)C3)n2)c(F)c1F)N1CCCCC1` [Compound 263, N-(2,3,6-Trifluoro-4-((3-(2-(((3S,5S)-5-fluoropiperidin-3-yl)amino)pyrimidin-4-yl)pyridin-2-yl)oxy)phenyl)piperidine-1-sulfonamide] gave an IC50 of 1.5 nM.
`O=S(=O)(Cc1ccccc1)Nc1c(F)cc(Oc2ncccc2-c2ccnc(NC3CNCC4(C3)CC4(F)F)n2)c(F)c1F` (single isomer, unassigned) [Compound 301, N-(4-((3-(2-((1,1-Difluoro-5-azaspiro[2.5]octan-7-yl)amino)pyrimidin-4-yl)pyridin-2-yl)oxy)-2,3,6-trifluorophenyl)-1-phenylmethanesulfonamide] had an IC50 of 0.36 nM.
For the compound `O=S(=O)(Cc1ccccc1)Nc1ccc(Oc2ncccc2-c2ccnc(N[C@H]3CCCNC3)n2)c(F)c1Cl` [Compound 161, (S)—N-(2-Chloro-3-fluoro-4-((3-(2-(piperidin-3-ylamino)pyrimidin-4-yl)pyridin-2-yl)oxy)phenyl)-1-phenylmethanesulfonamide], the IC50 worked out at 4.2 nM.
The value for `Cn1ccc(CS(=O)(=O)Nc2c(F)cc(Oc3ncccc3-c3ccnc(N[C@H]4CCCNC4)n3)c(F)c2F)n1` [Compound 236, (S)-1-(1-methyl-1H-pyrazol-3-yl)-N-(2,3,6-trifluoro-4-(3-(2-(piperidin-3-ylamino)pyrimidin-4-yl)pyridin-2-yloxy)phenyl)methanesulfonamide] was 9 nM; that for `O=S(=O)(Cc1ccc(Cl)cc1)Nc1c(F)cc(Oc2ncccc2-c2ccnc(N[C@@H]3CNC[C@@H](F)C3)n2)c(F)c1F` [Compound 354, 1-(4-Chlorophenyl)-N-[2,3,6-trifluoro-4-[[3-[2-[[(3S,5S)-5-fluoro-3-piperidyl]amino]pyrimidin-4-yl]-2-pyridyl]oxy]phenyl]methanesulfonamide] was 0.2 nM; that for `CCCS(=O)(=O)Nc1c(F)cc(Oc2ncccc2-c2ccnc(N[C@H]3CC[C@H](N(C)C)CC3)n2)c(F)c1F` [Compound 309, N-(4-((3-(2-(((1r,4r)-4-(Dimethylamino)cyclohexyl)amino)pyrimidin-4-yl)pyridin-2-yl)oxy)-2,3,6-trifluorophenyl)propane-1-sulfonamide] was 1.1 nM.
